Data set [1] has as its system viable cells in culture. Briefly: Cell viability assay at 10 μM (CellTiter-Glo, Table VII).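 Further: graded A 0-20%; B 21-40%; C 41-60%; D over 60% viable cells relative to DMSO control.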 Type of data set: cell-based. The following applies: compound 10 μM, 72 h. How it is done: The CellTiter-Glo® Luminescent Cell Viability Assay (Promega Corporation. Madison, Wis., USA) is method a determining the number of viable cells in culture based on quantification of the ATP being present which is an indicator of metabolically active cells was used according to manufacturers protocol. In detail the assay was performed in a 96 well format were 1000 cells/well were incubated with compound at concentration 10 μM as well as DMSO control for 72 h in 100 μl cell culture medium. Percentage of inhibition was calculated compared to ATP amount of DMSO control.
Background: In ATP-based viability assays light output follows the ATP content of the culture.

Counter-ions that a name gives are not always drawn. Like-named read-outs stand apart in the source and are kept apart here.

A word on the melting point: it is the temperature of the solid-liquid transition. In the case of `COc1cc2c(Oc3ccc(NS(=O)(=O)c4cc(F)ccc4F)cc3F)ccnc2cc1OCCCN` (as salt: hydrochloride) [Example 122, N-{4-[7-(3-Amino-propoxy)-6-methoxy-quinolin-4-yloxy]-3-fluoro-phenyl}-2,5-difluoro-benzenesulfonamide hydrochloride], the melting point lay within 188 to 190 °C.

In the case of `COc1cc2c(Oc3ccc(NS(=O)(=O)c4ccccc4F)cc3F)ccnc2cc1OCCCN1CCCCC1` [Example 2, 2-Fluoro-N-{3-fluoro-4-[6-methoxy-7-(3-piperidin-1-yl-propoxy)-quinolin-4-yloxy]-phenyl}-benzenesulfonamide], the melting point fell in the range of 214 to 216 °C.

Consider `COc1cc2c(Oc3ccc(NS(=O)(=O)c4ccc(Cl)cc4F)cc3F)ccnc2cc1OCCCN1CCCCC1` [Example 3, 4-Chloro-2-fluoro-N-{3-fluoro-4-[6-methoxy-7-(3-piperidin-1-yl-propoxy)-quinolin-4-yloxy]-phenyl}-benzenesulfonamide], for which the melting point was 122 to 124 °C. In data set [1] (Homo sapiens, HCT-116, HCT116 def, read-out: percentage (%) of viable cells HCT 116def), the viability at 10 µM lay within 0 to 20%. The viability at 10 µM in data set [1] (Homo sapiens, HCT-116, HCT116 wt, read-out: percentage (%) of viable cells HCT 116wt) lay within 0 to 20%. For the same molecule, the viability at 10 µM in data set [1] (Homo sapiens, HT-29, HT29, read-out: percentage (%) of viable cells HT29) is 0 to 20%. Moreover, in data set [1] (Homo sapiens, NCI-H358, H358, read-out: percentage (%) of viable cells H358), the viability at 10 µM fell in the range of 0 to 20%. The viability at 10 µM in data set [1] (Homo sapiens, NCI-H1650, H1650, read-out: percentage (%) of viable cells H1650) lay within 41 to 60%. In addition, the viability at 10 µM in data set [1] (Homo sapiens, NCI-H1666, H1666, read-out: percentage (%) of viable cells H1666) was 41 to 60%. Besides, the viability at 10 µM in data set [1] (Homo sapiens, NCI-H1975, H1975, read-out: percentage (%) of viable cells H1975) is 21 to 40%. The viability at 10 µM in data set [1] (Homo sapiens, NCI-H1993, H1993, read-out: percentage (%) of viable cells H1993) lay within 21 to 40%. Moreover, the viability at 10 µM in data set [1] (Homo sapiens, A549, read-out: percentage (%) of viable cells A549) was in the range of 21 to 40%. In data set [1] (Homo sapiens, HCC827, read-out: percentage (%) of viable cells HCC827), the viability at 10 µM is over 60%. Besides, the viability at 10 µM in data set [1] (Homo sapiens, SW480, read-out: percentage (%) of viable cells SW480) lay in the range of 0 to 20%. For the same molecule, the viability at 10 µM in data set [1] (RKO, read-out: percentage (%) of viable cells RKO) is 0 to 20%.

As for `COc1cc2c(Oc3ccc(NS(=O)(=O)c4cccc(OC(F)F)c4)cc3F)ccnc2cc1OCCCN1CCN(C)CC1` [Example 30, 3-Difluoromethoxy-N-(3-fluoro-4-{6-methoxy-7-[3-(4-methyl-piperazin-1-yl)-propoxy]-quinolin-4-yloxy}-phenyl)-benzenesulfonamide], the melting point fell in the range of 95 to 97 °C.

On to `COc1cc2c(Oc3ccc(NS(=O)(=O)c4cccs4)cc3F)ccnc2cc1OCCCN1CCN(C)CC1` [Example 31, Thiophene-2-sulfonic acid (3-fluoro-4-{6-methoxy-7-[3-(4-methyl-piperazin-1-yl)-propoxy]-quinolin-4-yloxy}-phenyl)-amide], for which the melting point is 201 to 202 °C.

`COc1cc2c(Oc3ccc(NS(=O)(=O)c4cccc(C(F)(F)F)c4)cc3F)ccnc2cc1OCCCN1CCCC(C)C1` (centres unmarked) [Example 39, ′N-(3-Fluoro-4-{6-methoxy-7-[3-(3-methyl-piperidin-1-yl)-propoxy]-quinolin-4-yloxy}-phenyl)-3-trifluoromethyl-benzenesulfonamide] returned a melting point of 128 to 130 °C.

The molecule `COc1cccc(S(=O)(=O)Nc2ccc(Oc3ccnc4cc(OCCCN5CCCC(C)C5)c(OC)cc34)c(F)c2)c1` (centres unmarked) [Example 42, N-(3-Fluoro-4-{6-methoxy-7-[3-(3-methyl-piperidin-1-yl)-propoxy]-quinolin-4-yloxy}-phenyl)-3-methoxy-benzenesulfonamide] yielded a melting point of 172 to 174 °C.

`COc1cc2c(Oc3ccc(NS(=O)(=O)C4CC4)cc3F)ccnc2cc1OCCCN1CCCC(C)C1` (centres unmarked) [Example 60, Cyclopropanesulfonic acid (3-fluoro-4-{6-methoxy-7-[3-(3-methyl-piperidin-1-yl)-propoxy]-quinolin-4-yloxy}-phenyl)-amide] registered a melting point of 158 to 160 °C.

As for `COc1cc2c(Oc3ccc(NS(=O)(=O)c4ccn(C)n4)cc3F)ccnc2cc1OCCCN1CCCC(C)C1` (centres unmarked) [Example 61, 1-Methyl-1H-pyrazole-3-sulfonic acid (3-fluoro-4-{6-methoxy-7-[3-(3-methyl-piperidin-1-yl)-propoxy]-quinolin-4-yloxy}-phenyl)-amide], the melting point lay in the range of 164 to 166 °C.

Take `CCn1cc(S(=O)(=O)Nc2ccc(Oc3ccnc4cc(OCCCN5CCCC(C)C5)c(OC)cc34)c(F)c2)cn1` (centres unmarked) [Example 68, 1-Ethyl-1H-pyrazole-4-sulfonic acid (3-fluoro-4-{6-methoxy-7-[3-(3-methyl-piperidin-1-yl)-propoxy]-quinolin-4-yloxy}-phenyl)-amide]: the melting point is 152 to 154 °C.

`COc1cc2c(Oc3ccc(NS(=O)(=O)c4cccc(Cl)c4)cc3F)ccnc2cc1OCCCN1CCCC(C)C1` (centres unmarked) [Example 69, 3-Chloro-N-(3-fluoro-4-{6-methoxy-7-[3-(3-methyl-piperidin-1-yl)-propoxy]-quinolin-4-yloxy}-phenyl)-benzenesulfonamide] gave a melting point of 110 to 112 °C.

`COc1cc2c(Oc3ccc(NS(=O)(=O)c4ccccc4OC)cc3F)ccnc2cc1OCCCN1CCCC(C)C1` (centres unmarked) [Example 71, N-(3-Fluoro-4-{6-methoxy-7-[3-(3-methyl-piperidin-1-yl)-propoxy]-quinolin-4-yloxy}-phenyl)-2-methoxy-benzenesulfonamide] returned a melting point of 175 to 176 °C.

Turning to `COc1cc2c(Oc3ccc(NS(=O)(=O)/C=C/c4ccccc4)cc3F)ccnc2cc1OCCCN1CCCC(C)C1` (centres unmarked) [Example 73, 2-Phenyl-ethenesulfonic acid (3-fluoro-4-{6-methoxy-7-[3-(3-methyl-piperidin-1-yl)-propoxy]-quinolin-4-yloxy}-phenyl)-amide], the melting point is 104 to 106 °C.

`COc1cc2c(Oc3ccc(NS(=O)(=O)c4cccc5cccnc45)cc3F)ccnc2cc1OCCCN1CCCC(C)C1` (centres unmarked) [Example 74, Quinoline-8-sulfonic acid (3-fluoro-4-{6-methoxy-7-[3-(3-methyl-piperidin-1-yl)-propoxy]-quinolin-4-yloxy}-phenyl)-amide] came in with a melting point of 190 to 191 °C.

Molecule `CCCCS(=O)(=O)Nc1ccc(Oc2ccnc3cc(OCCCN4CCOCC4)c(OC)cc23)c(F)c1` [Example 79, Butane-1-sulfonic acid {3-fluoro-4-[6-methoxy-7-(3-morpholin-4-yl-propoxy)-quinolin-4-yloxy]-phenyl}-amide] had a melting point of 98 to 100 °C.

`COc1cc2c(Oc3ccc(NS(=O)(=O)c4ccccc4C(F)(F)F)cc3F)ccnc2cc1OCCCNC(=O)NC(C)(C)C` [Example 98, N-(4-{7-[3-(3-tert-Butyl-ureido)-propoxy]-6-methoxy-quinolin-4-yloxy}-3-fluoro-phenyl)-2-trifluoromethyl-benzenesulfonamide] had a melting point of 106 to 108 °C.

The molecule `COc1cc2c(Oc3ccc(NS(=O)(=O)c4ccccc4OC)cc3F)ccnc2cc1OCCN1CCOCC1` [Example 103, N-{3-Fluoro-4-[6-methoxy-7-(2-morpholin-4-yl-ethoxy)-quinolin-4-yloxy]-phenyl}-2-methoxy-benzenesulfonamide] displayed a melting point of 182 to 183 °C.

`COc1cc2c(Oc3ccc(NS(=O)(=O)c4cccs4)cc3F)ccnc2cc1OCCN1CCOCC1` [Example 105, Thiophene-2-sulfonic acid {3-fluoro-4-[6-methoxy-7-(2-morpholin-4-yl-ethoxy)-quinolin-4-yloxy]-phenyl}-amide]: the melting point fell in the range of 146 to 147 °C.

The molecule `COc1cc2c(Oc3ccc(NS(=O)(=O)c4ccn(C)n4)cc3F)ccnc2cc1OCCN1CCOCC1` [Example 107, 1-Methyl-1H-pyrazole-3-sulfonic acid {3-fluoro-4-[6-methoxy-7-(2-morpholin-4-yl-ethoxy)-quinolin-4-yloxy]-phenyl}-amide] had a melting point of 213 to 214 °C.

Regarding `COc1cc2c(Oc3cccc(NS(=O)(=O)c4cc(F)ccc4F)c3)ccnc2cc1OCCCN1CCN(C)CC1` [Example 123, 2,5-Difluoro-N-(3-{6-methoxy-7-[3-(4-methyl-piperazin-1-yl)-propoxy]-quinolin-4-yloxy}-phenyl)-benzenesulfonamide], the melting point was 186 to 188 °C.

Consider `COc1cc2c(Oc3ccc(NS(=O)(=O)c4ccccc4C(F)(F)F)c(F)c3)ccnc2cc1OCCCN1CCCC1` [Example 213, N-{2-Fluoro-4-[6-methoxy-7-(3-pyrrolidin-1-yl-propoxy)-quinolin-4-yloxy]-phenyl}-2-trifluoromethyl-benzenesulfonamide], for which the melting point fell in the range of 152 to 156 °C.

In the case of `COc1cc2c(Oc3ccc(NS(=O)(=O)c4ccccc4C(F)(F)F)cc3F)ccnc2cc1OCCCCN1CCOCC1` [Example 214, N-{3-Fluoro-4-[6-methoxy-7-(4-morpholin-4-yl-butoxy)-quinolin-4-yloxy]-phenyl}-2-trifluoromethyl-benzenesulfonamide], the melting point was in the range of 102 to 104 °C.

`COc1cc2c(Oc3ccc(NS(=O)(=O)c4ccccc4C(F)(F)F)c(F)c3)ccnc2cc1OCCCN1CCCC(C)C1` (centres unmarked) [Example 215, N-(2-Fluoro-4-{6-methoxy-7-[3-(3-methyl-piperidin-1-yl)-propoxy]-quinolin-4-yloxy}-phenyl)-2-trifluoromethyl-benzenesulfonamide] had a melting point of 125 to 126 °C.

The values above are taken from patent US9169241B2, “Quinolinyloxyphenylsulfonamides” (Max-Planck-Gesellschaft Zur Forderung der Wissenschaften …, priority 2009, dated 2015).
